From US7598234B2, “Steroid derived antibiotics” (Brigham Young University, priority 1998, dated 2009)
In brackets after ≈: the same amount, converted by molar mass.

Experiments:
[1] = tested on: Streptococcus pyrogenes ATCC 19615; experiment: MIC and MBC measurement with Streptococcus pyogenes ATCC 19615; type: cell-based; settings: Table 10
Text: (§1) General: Microorganisms. Reference strains were purchased from the American Type Culture Collection (Rockville, Md.) or Bactrol disks from Difeo Laboratories (Detroit, Mich.). The following specific ATCC strains were used: 10798 Escherichia coli, 25922 Escherichia coli, 13883 Klebsiella pneumoniae, 27853 Pseudomonas aeruginosa, 14028 Salmonella typhimurium, 29212 Enterococcus faecalis, 25923 Staphylococcus aureus, 19615 Streptococcus pyogenes, and 90028 Candida albicans. Bacterial strains were maintained on Mueller-Hinton agar plates, and Candida albicans was maintained on Sabouraud Dextrose agar plates.
(§2) Tryptic soy broth (TSB) was made by dissolving 27.5 grams of tryptic soy broth without dextrose (DIFCO Laboratories) in 1 liter of deionized water and sterilizing at 121° C. for 15 minutes. Solid agar (TSA) plates were made by dissolving 6.4 grams of tryptic soy broth and 12 grams of agar (purified grade, Fischer Scientific) in 800 mL of deionized water and sterilizing at 121° C. for 20 minutes. Aliquots (20 mL) of the homogeneous solution were then poured in sterile plastic petri dishes (100×15 mm, Fisher Scientific). Solutions of compounds were made by dissolving the HCl salt of the respective compound into an appropriate amount of deionized and sterilized water followed by microfiltration.
(§3) Aliquots of 1 mL of the suspension were added to test tubes containing 1 mL TSB and incrementally varied concentrations of cholic acid derivatives and/or erythromycin or novobiocin. In the sensitization experiments, erythromycin or novobiocin were added 15 minutes later than the cholic acid derivatives. The samples were subjected to stationary incubation at 37° C. for 24 hours. Sample turbidity was determined by measuring absorption at 760 nm (HP 8453 UV-Visible Chemstation, Hewlett Packard). Additionally, an alliquot from each of the samples showing no measurable turbidity was subcultured on TSA plates (alliquots were diluted to provide fewer than 300 CFU). Colonies that grew on the subculture after overnight incubation were counted and the number of CFU/mL in the samples were calculated. The calculated values were compared to the number of CFU/mL in the original inoculum.

[2] = tested on: Candida albicans ATCC 90028; experiment: MIC and MBC measurement with Candida albicans ATCC 90028; type: cell-based; settings: Table 10
Text: as §1, §2, §3

E. coli (ATCC 10798) = experiment: MIC and MBC measurement with E. coli (ATCC 10798); type: cell-based, Escherichia coli
Outline: (§4)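 Broth macrodilution, TSB, 37° C./24 h stationary; MIC by absence of A760 turbidity, MBC by TSA subculture CFU/mL against starting inoculum.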

[3] = tested on: Escherichia coli ATCC 25922; experiment: Growth inhibition and FIC with rifampicin, Escherichia coli ATCC 25922; type: cell-based; settings: for FIC: Table 13, rifampicin (by order); for concentration required to inhibit bacterial growth with antibiotic: Table 13, rifampicin (by order) at 0.5, 1.0 or 3.0 μg/mL
Method: (§5) Alternatively, “fractional inhibitory concentration (FIC)” is also useful for determination of synergy between the compounds of the invention, or the compounds in combination with known antibiotics. FICs can be performed by checkerboard titrations of compounds in one dimension of a microtiter plate, and of antibiotics in the other dimension, for example. The FIC is calculated by looking at the impact of one antibiotic on the MIC of the other and vice versa. […] Preferably, an FIC of less than 0.5 is obtained for synergism. As used herein, FIC can be determined as follows:
as §3
(§6) To measure permeabilization, the FIC values for compounds 1, 2, 5, 106, 10, 112, 133, and 134 with erythromycin, novobiocin, and rifampicin were determined. Concentrations of 0.5, 1.0 or 3.0 μg/mL of these antibiotics were used, and the concentrations of the cholic acid derivatives required to inhibit bacterial growth of Gram-negative strains were determined.

[4] = tested on: Klebsiella pneumonia ATCC 13883; experiment: MIC and MBC measurement with Klebsiella pneumoniae ATCC 13883; type: cell-based; settings: Table 10
Outline: as §4

[5] = tested on: Pseudomonas aeruginosa (ATCC 27853); experiment: Sensitization to erythromycin, Pseudomonas aeruginosa (ATCC 27853); type: cell-based; settings: for MIC: concentration required to lower the MIC of erythromycin from 240 μg/mL to 5 μg/mL / MBC (with erythromycin): Table 7, P. aureginosa (ATCC 27853); for MBC (with erythromycin): erythromycin sensitization; for FIC / concentration required to inhibit bacterial growth with antibiotic: Table 11, Pseudomonas aeruginosa ATCC 27853; for FIC: erythromycin (by order); for concentration required to inhibit bacterial growth with antibiotic: erythromycin (by order) at 0.5, 1.0 or 3.0 μg/mL
Outline: (§7)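 Sensitization measured by the cholic acid derivative concentration inhibiting growth when combined with 0.5, 1.0 or 3.0 μg/mL erythromycin or novobiocin, antibiotic added 15 min after derivative. Incubation 24 h at 37 °C without shaking in TSB; growth by absorbance at 760 nm with CFU plating of non-turbid tubes; synergy expressed as FIC.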

[6] = tested on: Klebsiella pneumonia ATCC 13883; experiment: Growth inhibition and FIC with novobiocin, Klebsiella pneumoniae ATCC 13883; type: cell-based; settings: Table 12, novobiocin (by order) at 0.5, 1.0 or 3.0 μg/mL
Method: as §5, §3, §6

E. coli (ATCC 25922) = experiment: MIC and MBC measurement with E. coli (ATCC 25922); type: cell-based, Escherichia coli
Outline: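 Growth inhibition read as absorbance at 760 nm after 24 h stationary culture at 37 °C in tryptic soy broth containing varied compound levels. Turbidity-free samples were plated on TSA overnight and CFU/mL compared with the starting inoculum for bactericidal endpoint; antibiotic co-additions followed compound by 15 min.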

[7] = tested on: Enterococcus faecalis ATCC 29212; experiment: MIC and MBC measurement with Enterococcus faecalis ATCC 29212; type: cell-based; settings: Table 10
Text: as §1, §2, §3

[8] = Method: Minimum inhibition concentrations (MIC) and minimum hemolytic concentrations (MHC) were measured as described in Li et al., Antimicrob. Agents. Chemother., 1999, 43, 1347.
[9] = tested on: Pseudomonas aeruginosa (ATCC 27853); experiment: Sensitization to novobiocin, Pseudomonas aeruginosa (ATCC 27853); type: cell-based; settings: for MIC: concentration required to lower the MIC of novobiocin from >500 μg/mL to 1 μg/mL: Table 8, P. aureginosa (ATCC 27853); for FIC / concentration required to inhibit bacterial growth with antibiotic: Table 12, Pseudomonas aeruginosa ATCC 27853; for FIC: novobiocin (by order); for concentration required to inhibit bacterial growth with antibiotic: novobiocin (by order) at 0.5, 1.0 or 3.0 μg/mL
Outline: as §7

[10] = tested on: E. coli containing an inducible luciferase coding plasmid; experiment: Luciferin/luciferase-based permeabilization / cell lysis assay; design: species or system Escherichia coli; settings: permeabilization of the outer membrane allowing luciferin to enter the cell
Method: Using a technique described by J. M. Shupp, S. E. Travis, L. B. Price, R. F. Shand, P. Keim, RAPID BACTERIAL PERMEABILIZATION REAGENT USEFUL FOR ENZYME ASSAYS, Biotechniques, 1995, vol.
In this assay, E. coli containing an inducible luciferase coding plasmid was incubated with the inducing agent […], then treated with a lysis buffer containing either PMB or one of the cholic acid derivatives, and Triton X-100. Luciferin and ATP were then added. […] The concentrations of the membrane disrupting agents (PMB and the cholic acid derivatives) were varied, and the resulting luminescence was measured.

[11] = Table 10, Escherichia coli ATCC 25922
[12] = Table 9, Escherichia coli (ATCC 10798)

SMILES	MBC [1] [µg/mL]	MIC [1] [µg/mL]	MBC [2] [µg/mL]	MIC [2] [µg/mL]	MBC (E. coli (ATCC 10798); Table 1, E. coli (ATCC 10798)) [µg/mL]	MIC (E. coli (ATCC 10798); Table 1, E. coli (ATCC 10798)) [µg/mL]	FIC [3]	concentration required to inhibit bacterial growth with antibiotic [3] [µg/mL]	MBC [4] [µg/mL]	MIC [4] [µg/mL]	FIC [5]	concentration required to inhibit bacterial growth with antibiotic [5] [µg/mL]	concentration required to inhibit bacterial growth with antibiotic [6] [µg/mL]	MBC (E. coli (ATCC 25922); [11]) [µg/mL]	MIC (E. coli (ATCC 25922); [11]) [µg/mL]	MBC [7] [µg/mL]	MIC [7] [µg/mL]	MHC [8] [µg/mL]	FIC [9]	concentration required to inhibit bacterial growth with antibiotic [9] [µg/mL]	further results
C[C@H](CCCN(C)Cc1ccccc1)[C@H]1CC[C@H]2[C@@H]3[C@H](OCCN)C[C@@H]4C[C@H](OCCN)CC[C@]4(C)[C@H]3C[C@H](OCCN)[C@]12C [Compound 1]	4.4 (≈ 7.02 µM)	3.0 (≈ 4.78 µM)	>50	49 (≈ 78.2 µM)	34 (≈ 54.2 µM)	20 (≈ 31.9 µM)	0.099	0.74	>36	24 (≈ 38.3 µM)	0.29	6.6	4.7	22 (≈ 35.1 µM)	22 (≈ 35.1 µM)	50 (≈ 79.7 µM)	4.9 (≈ 7.82 µM)	78	0.16	3.9	MIC: concentration required to lower the MIC of erythromycin from 240 μg/mL to 5 μg/mL [5]: 8 µg/mL; MBC (with erythromycin) [5]: 45 µg/mL; MBC (E. coli (ATCC 25922); Table 4, E. coli (ATCC 25922)): 40 µg/mL (≈ 63.8 µM); MIC (E. coli (ATCC 25922); Table 4, E. coli (ATCC 25922)): 25 µg/mL (≈ 39.9 µM); MIC: concentration required to lower the MIC of novobiocin from >500 μg/mL to 1 μg/mL [9]: 6 µg/mL
C[C@H](CCCN(C)Cc1ccccc1)[C@H]1CC[C@H]2[C@@H]3[C@H](OCCCN)C[C@@H]4C[C@H](OCCCN)CC[C@]4(C)[C@H]3C[C@H](OCCCN)[C@]12C [Compound 2]	2.3 (≈ 3.44 µM)	2.0 (≈ 2.99 µM)	42 (≈ 62.8 µM)	30 (≈ 44.8 µM)	16 (≈ 23.9 µM)	7 (≈ 10.5 µM)	0.22	0.80	17 (≈ 25.4 µM)	14 (≈ 20.9 µM)	0.25	2.4	0.49	6.8 (≈ 10.2 µM)	5.1 (≈ 7.62 µM)	19 (≈ 28.4 µM)	3.4 (≈ 5.08 µM)	58	0.27	2.9	MIC: concentration required to lower the MIC of erythromycin from 240 μg/mL to 5 μg/mL [5]: 4 µg/mL; MBC (with erythromycin) [5]: 25 µg/mL; MBC (E. coli (ATCC 25922); Table 4, E. coli (ATCC 25922)): 20 µg/mL (≈ 29.9 µM); MIC (E. coli (ATCC 25922); Table 4, E. coli (ATCC 25922)): 10 µg/mL (≈ 14.9 µM); half maximum luminescence [10]: 7 µg/mL; MIC: concentration required to lower the MIC of novobiocin from >500 μg/mL to 1 μg/mL [9]: 4 µg/mL
C[C@]12CC[C@@H](OCCCN)C[C@H]1C[C@@H](OCCCN)[C@@H]1[C@@H]2C[C@H](OCCCN)[C@]2(C)[C@@H](O)CC[C@@H]12 [Compound 106]	37 (≈ 74.6 µM)	18 (≈ 36.3 µM)	92 (≈ 186 µM)	75 (≈ 151 µM)	–	–	0.12	4.2	100 (≈ 202 µM)	>100	0.22	16	8.9	90 (≈ 182 µM)	80 (≈ 161 µM)	>100	12 (≈ 24.2 µM)	>100	0.36	30	MBC (E. coli (ATCC 10798); [12]): >200 µg/mL; MIC (E. coli (ATCC 10798); [12]): 140 µg/mL (≈ 282 µM)
CCCOCCC[C@@H](C)[C@H]1CC[C@H]2[C@@H]3[C@H](OCCCN)C[C@@H]4C[C@H](OCCCN)CC[C@]4(C)[C@H]3C[C@H](OCCCN)[C@]12C [Compound 112]	3.0 (≈ 4.93 µM)	2.4 (≈ 3.95 µM)	45 (≈ 74 µM)	41 (≈ 67.4 µM)	–	–	0.19	0.81	27 (≈ 44.4 µM)	23 (≈ 37.8 µM)	0.59	1.0	0.19	7.4 (≈ 12.2 µM)	6.6 (≈ 10.9 µM)	4.7 (≈ 7.73 µM)	3.1 (≈ 5.1 µM)	5.9	0.17	0.72	MBC (E. coli (ATCC 10798); [12]): 17 µg/mL (≈ 28 µM); MIC (E. coli (ATCC 10798); [12]): 12 µg/mL (≈ 19.7 µM)
